For series [1], the target named is human histamine 4 receptor (hH4R) (Homo sapiens (Human), UniProt Q9H3N8). The series is described as follows: Binding affinity of human histamine 4 receptor (hH4R), [3H] labeled histamine displacement. The note with it: hH4R-overexpressed cell membrane, [3H] histamine. The protocol:
20 μL of the prepared compound solution was transferred to each well of a 96-well plate, and then 20 μL of 100 μM histamine diluted with analysis buffer solution and 1% DMSO were transferred to each well to calculate non-specific binding and total binding degree. 25 μg of human histamine 4 receptor-overexpressed cell membrane (PerkinElmer) was diluted into 160 μL of analysis buffer solution and that was transferred to each well. [^3H] labeled histamine (PerkinElmer) was diluted into 1 μM concentration, 20 μL was allocated in each well, and then it was kept in a 27° C. incubator for 30 minutes. After the reaction, 200 μL of the mixture was transferred to a glass fiber plate in which 0.5% polyethylene amine was presoaked, and then non-binding [^3H] labeled histamine was removed in vacuum. After 4 times washing with 200 μL of washing buffer solution (50 mM tris-HCl, pH 7.4), the plate was dried in a 37° C. oven for 18 hours. 100 μL of betascint cocktail solution was added to each well, and after 1 hour CPM (count per minute) value of [^3H] labeled histamine was measured by using Wallac beta-counter TriLux.

Series [2] can be described thus: Solubility in artificial gastrointestinal tract solution. The format is physicochemical. The note with it: thermodynamic from solid; for solubility at 1 h: fassgf or other biorelevant, first solution pH 1.2, 2 mg/mL sample, 37° C. 1 hour; for solubility at 2 h: fassif, second solution pH 6.5, 2 mg/mL sample, 37° C. 2 hours. As to the method:
2.0 g of sodium chloride was added in 7.0 mL of 37% of hydrochloric acid and water to make the total volume of 1 L. The pH was adjusted to exactly 1.2 with 1N sodium hydroxide or 1N hydrochloric acid. A small amount (20 mL) of this solution was taken and added in 25 μL of triton X-100 to make the total volume of 25 mL.
0.348 g sodium hydroxide, 3.438 g NaH2PO4, 6.186 g sodium chloride and water were added to make the total volume of 1 L. The pH was adjusted to exactly 6.5 with 1N sodium hydroxide or 1N hydrochloric acid. A small amount (20 mL) of this solution was taken and 41.25 mg of sodium taurocholate hydrate and 25 μL of 750 mM lecithin dissolved in ethanol was added to make the total volume of 25 mL.
The heated test sample solutions were filtered to remove undissolved compounds therein. Finally, 100 μL of the completely compound-dissolved solution was sampled and 100 μL of CH3CN was added thereto to make the test sample solution. For each analysis of the test sample solution, the solubility was measured by using liquid chromatography.

A short description of series [3]: Metabolic stability in mouse microsome. The note with it: mouse microsome 1 mg/mL, 5 μM compound, 1 mM NADPH.
Series [4] can be described thus: Metabolic stability in human microsome. The following applies: human microsome 1 mg/mL, 5 μM compound, 1 mM NADPH.
Series [5] has as its target human histamine 3 receptor (hH3R) (Homo sapiens (Human), UniProt Q9Y5N1). Nature of the series: Binding affinity of human histamine 3 receptor (hH3R), [3H] labeled N-α-methylhistamine displacement. The following applies: hH3R-overexpressed cell membrane, [3H] N-α-methylhistamine. In short, it runs like this:
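Membranes from cells overexpressing hH3R (15 μg) were incubated with compound and [3H]N-α-methylhistamine (20 μM stock) in 50 mM Tris-HCl pH 7.4, 5 mM MgCl2 for 30 min at 27 °C. Bound radioligand was counted by scintillation after filtration; 200 μM (R)(−)-α-methylhistamine stock defined non-specific binding; IC50 derived.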

Where [6] appears, read: artificial gastrointestinal tract solution.

One may read the pIC50 as the negative decadic logarithm of the IC50, by convention in mol/L. For orientation: solubility means the dissolved amount per volume that the medium holds.

pIC50: −log10 of the molar value. Converted amounts (≈) assume the structure as drawn.

human histamine 3 receptor (hH3R), sequence (Q9Y5N1 whole entry): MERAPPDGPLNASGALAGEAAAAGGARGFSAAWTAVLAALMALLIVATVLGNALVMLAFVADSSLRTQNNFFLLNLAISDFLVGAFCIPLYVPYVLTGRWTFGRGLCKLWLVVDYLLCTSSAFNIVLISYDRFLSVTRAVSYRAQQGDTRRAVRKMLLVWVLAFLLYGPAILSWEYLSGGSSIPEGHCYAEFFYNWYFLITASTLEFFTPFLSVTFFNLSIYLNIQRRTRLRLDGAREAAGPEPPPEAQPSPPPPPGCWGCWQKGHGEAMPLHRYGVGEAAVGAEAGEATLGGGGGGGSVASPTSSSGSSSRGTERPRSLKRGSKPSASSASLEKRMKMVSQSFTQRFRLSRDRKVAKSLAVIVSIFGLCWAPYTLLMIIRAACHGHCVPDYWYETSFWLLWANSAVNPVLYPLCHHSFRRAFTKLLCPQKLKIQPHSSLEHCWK
human histamine 4 receptor (hH4R), sequence (Q9H3N8 whole entry): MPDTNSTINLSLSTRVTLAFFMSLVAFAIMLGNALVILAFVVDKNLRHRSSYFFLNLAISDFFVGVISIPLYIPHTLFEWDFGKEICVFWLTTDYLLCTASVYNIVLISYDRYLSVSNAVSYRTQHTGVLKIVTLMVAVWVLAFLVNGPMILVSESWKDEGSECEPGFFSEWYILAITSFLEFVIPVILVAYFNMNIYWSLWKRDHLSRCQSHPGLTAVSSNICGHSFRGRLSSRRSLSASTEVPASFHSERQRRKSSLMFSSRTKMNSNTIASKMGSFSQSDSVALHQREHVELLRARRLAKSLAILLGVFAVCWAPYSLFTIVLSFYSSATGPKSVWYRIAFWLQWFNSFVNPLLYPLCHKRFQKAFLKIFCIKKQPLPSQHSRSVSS

For the compound `CN1CCN(c2nc3ncc(Br)cc3n3cnnc23)CC1` [Compound 12, 8-Bromo-4-(4-methylpiperazin-1-yl)pyrido[2,3-e][1,2,4]triazolo[4,3-a]pyrazine], the pIC50 in series [1] is 7.17. In series [2] (setting [6]), this compound showed a solubility at 1 h of 1930 µg/mL (≈ 5.54 mM) and a solubility at 2 h of 679 µg/mL (≈ 1.95 mM). In addition, the “Metabolic stability (CLh. int), Mouse” value in series [3] was 14420 µL/min/mg. Besides, the “Metabolic stability (CLh. int), Human” value in series [4] was 3730 µL/min/mg.
`C[C@H]1CN(c2nc3ncc(Cl)cc3n3cnnc23)CCN1` [Compound 19, (S)-8-chloro-4-(3-methylpiperazin-1-yl)pyrido[2,3-e][1,2,4]triazolo[4,3-a]pyrazine] showed a pIC50 in series [1] of 6.12. This compound also had a pIC50 in series [5] of under 4.00. Further, in series [2] (setting [6]), the solubility at 1 h came out at 1980 µg/mL (≈ 6.5 mM) and the solubility at 2 h turned out to be 1700 µg/mL (≈ 5.58 mM). Further, in series [3], the “Metabolic stability (CLh. int), Mouse” value was 26160 µL/min/mg. The “Metabolic stability (CLh. int), Human” value in series [4] stood at 960 µL/min/mg.
As for `C[C@H]1CN(c2nc3ncc(Cl)cc3n3cnnc23)CCN1C` [Compound 20, (S)-8-chloro-4-(3,4-dimethylpiperazin-1-yl)pyrido[2,3-e][1,2,4]triazolo[4,3-a]pyrazine], the negative-log IC50 (pIC50) in series [1] is 6.42; in series [5], under 4.00. The same compound had a solubility at 1 h in series [2] (setting [6]) of 2070 µg/mL (≈ 6.51 mM). In addition, the solubility at 2 h in series [2] (setting [6]) is 1640 µg/mL (≈ 5.18 mM). In addition, the “Metabolic stability (CLh. int), Mouse” value in series [3] was 7570 µL/min/mg. Moreover, the “Metabolic stability (CLh. int), Human” value in series [4] stood at 1620 µL/min/mg.
`CNC1CN(c2nc3ncc(C)cc3n3cnnc23)C1` [Compound 50, N-Methyl-1-(8-methylpyrido[2,3-e][1,2,4]triazolo[4,3-a]pyrazin-4-yl)azetidin-3-amine] had a pIC50 in series [1] of 6.72. In addition, the pIC50 in series [5] was under 4.00. Besides, in series [2] (setting [6]), the concentration in solution (solubility at 1 h) was 1990 µg/mL (≈ 7.38 mM) and the concentration in solution (solubility at 2 h) came to 1870 µg/mL (≈ 6.95 mM). Besides, the “Metabolic stability (CLh. int), Mouse” value in series [3] worked out at 9080 µL/min/mg. Moreover, the “Metabolic stability (CLh. int), Human” value in series [4] turned out to be 1900 µL/min/mg.
Take `CNC1CN(c2nc3ncc(C(F)(F)F)cc3n3cnnc23)C1` [Compound 52, N-Methyl-1-(8-(trifluoromethyl)pyrido[2,3-e][1,2,4]triazolo[4,3-a]pyrazin-4-yl)azetidin-3-amine]: in series [1], the pIC50 is 6.66. Further, in series [5], the pIC50 is under 4.00. In series [2], this compound had a solubility at 1 h of 1670 µg/mL (≈ 5.18 mM) and a solubility at 2 h of 1460 µg/mL (≈ 4.53 mM). Besides, the “Metabolic stability (CLh. int), Mouse” value in series [3] amounted to 2050 µL/min/mg. Further, in series [4], the “Metabolic stability (CLh. int), Human” value is 1320 µL/min/mg.
Consider `Clc1cc2c(nc1Cl)nc(N1CCNCC1)c1nncn12` [Compound 62, 7,8-Dichloro-4-(piperazin-1-yl)pyrido[2,3-e][1,2,4]triazolo[4,3-a]pyrazine], for which the negative logarithm of the IC50 (pIC50) is 6.29 in series [1] and under 4.00 in series [5]. For the same compound, in series [3], the “Metabolic stability (CLh. int), Mouse” value turned out to be 7980 µL/min/mg. In addition, the “Metabolic stability (CLh. int), Human” value in series [4] came to 4170 µL/min/mg.
For the compound `CNC1CN(c2nc3ncc(Br)c(C)c3n3cnnc23)C1` [Compound 65, 1-(8-Bromo-9-methylpyrido[2,3-e][1,2,4]triazolo[4,3-a]pyrazin-4-yl)-N-methylazetidin-3-amine], the negative logarithm of the IC50 (pIC50) in series [1] is 6.14; in series [5] it was under 4.00. Moreover, the “Metabolic stability (CLh. int), Mouse” value in series [3] was 6490 µL/min/mg. Moreover, the “Metabolic stability (CLh. int), Human” value in series [4] came to 3210 µL/min/mg.
Compound `CNC1CN(c2nc3ncc(Br)cc3n3cnnc23)C1.Cl` [Compound 68, 1-(8-Bromopyrido[2,3-e][1,2,4]triazolo[4,3-a]pyrazin-4-yl)-N-methylazetidin-3-amine hydrochloride] gave a negative-log IC50 (pIC50) in series [1] (hydrochloride) of 6.89. The compound also had a negative-log IC50 (pIC50) in series [5] of under 4.00. In series [2] (setting [6]), the solubility at 1 h is 1820 µg/mL and the solubility at 2 h was determined as 1760 µg/mL. In addition, in series [3], the “Metabolic stability (CLh. int), Mouse” value is 3930 µL/min/mg. Besides, in series [4], the “Metabolic stability (CLh. int), Human” value came to 300 µL/min/mg.
In turn, `CNC1CN(c2nc3ncc(Br)cc3n3nnnc23)C1.Cl` [Compound 69, 1-(8-Bromopyrido[2,3-e]tetrazolo[1,5-a]pyrazin-4-yl)-N-methylazetidin-3-amine hydrochloride] had a negative-log IC50 (pIC50) in series [1] of 7.46. This compound had a pIC50 in series [5] of under 4.00. In addition, in series [2] (setting [6]), the solubility at 1 h is 1810 µg/mL and the solubility at 2 h stood at 1920 µg/mL. In addition, the “Metabolic stability (CLh. int), Mouse” value in series [3] worked out at 14040 µL/min/mg. Also, the “Metabolic stability (CLh. int), Human” value in series [4] amounted to 5690 µL/min/mg.
Regarding `Clc1cnc2nc(N3C[C@@H]4C[C@H]3CN4)c3nncn3c2c1` [Compound 77, 4-((1S,4S)-2,5-diazabicyclo[2.2.1]heptan-2-yl)-8-chloropyrido[2,3-e][1,2,4]triazolo[4,3-a]pyrazine], the negative-log IC50 (pIC50) in series [1] is 6.31; in series [5], under 4.00. Moreover, the “Metabolic stability (CLh. int), Mouse” value in series [3] was found to be 320 µL/min/mg. For the same compound, the “Metabolic stability (CLh. int), Human” value in series [4] is 1330 µL/min/mg.
Take `CN1C[C@@H]2C[C@H]1CN2c1nc2ncc(Cl)cc2n2cnnc12` [Compound 78, 8-Chloro-4-((1S,4S)-5-methyl-2,5-diazabicyclo[2.2.1]heptan-2-yl)pyrido[2,3-e][1,2,4]triazolo[4,3-a]pyrazine]: the pIC50 in series [1] is 6.37; in series [5], under 4.00. For the same compound, in series [3], the “Metabolic stability (CLh. int), Mouse” value came to 1460 µL/min/mg. The “Metabolic stability (CLh. int), Human” value in series [4] stood at 2360 µL/min/mg.
Turning to `CNC1CN(c2nc3ncc(Cl)cc3n3ccnc23)C1` [Compound 88, 1-(8-Chloroimidazo[1,2-a]pyrido[2,3-e]pyrazin-4-yl)-N-methylazetidin-3-amine], the negative logarithm of the IC50 (pIC50) was 6.59 in series [1] and under 4.00 in series [5]. For the same compound, in series [2] (setting [6]), the solubility at 1 h was determined as 1820 µg/mL (≈ 6.31 mM). In series [2] (setting [6]), this compound registered a solubility at 2 h of 1580 µg/mL (≈ 5.46 mM). The “Metabolic stability (CLh. int), Mouse” value in series [3] turned out to be 11770 µL/min/mg. In addition, the “Metabolic stability (CLh. int), Human” value in series [4] was found to be 2870 µL/min/mg.
Regarding `CNC1CN(c2nc3ncc(Br)cc3n3ccnc23)C1` [Compound 89, 1-(8-Bromoimidazo[1,2-a]pyrido[2,3-e]pyrazin-4-yl)-N-methylazetidin-3-amine], the values for the negative-log IC50 (pIC50) in series [1] and in series [5] were 6.44 and under 4.00, respectively. The “Metabolic stability (CLh. int), Mouse” value in series [3] was found to be 10710 µL/min/mg. The “Metabolic stability (CLh. int), Human” value in series [4] was 3190 µL/min/mg.
As to `CNC1CN(C2=Nc3ncc(Br)cc3N3CCN=C23)C1` [Compound 107, 1-(8-bromo-1,2-dihydroimidazo[1,2-a]pyrido[2,3-e]pyrazin-4-yl)-N-methylazetidin-3-amine], the pIC50 is 6.21 in series [1] and under 4.00 in series [5]. For the same compound, the concentration in solution in series [2] (setting [6]) (solubility at 1 h) came to 1420 µg/mL (≈ 4.22 mM). The solubility at 2 h in series [2] (setting [6]) amounted to 1570 µg/mL (≈ 4.68 mM). For the same compound, the “Metabolic stability (CLh. int), Mouse” value in series [3] was determined as 8150 µL/min/mg. Besides, the “Metabolic stability (CLh. int), Human” value in series [4] came out at 5160 µL/min/mg.
In series [1], `CNC1CN(c2nc3ncc(Br)cc3c3ccnn23)C1` [Compound 110, 1-(9-bromopyrazolo[1,5-c]pyrido[3,2-e]pyrimidin-5-yl)-N-methylazetidin-3-amine] had a pIC50 of 6.80. Also, the negative-log IC50 (pIC50) in series [5] was under 4.00. Also, in series [2] (setting [6]), the solubility at 1 h is 1870 µg/mL (≈ 5.62 mM) and the concentration in solution (solubility at 2 h) was 708 µg/mL (≈ 2.13 mM). Besides, the “Metabolic stability (CLh. int), Mouse” value in series [3] was found to be 1780 µL/min/mg. Further, the “Metabolic stability (CLh. int), Human” value in series [4] was 3880 µL/min/mg.
`CNC1CN(c2nc3ncc([N+](=O)[O-])cc3n3cnnc23)C1` [Compound 111, N-methyl-1-(8-nitropyrido[2,3-e][1,2,4]triazolo[4,3-a]pyrazin-4-yl)azetidin-3-amine] gave a negative logarithm of the IC50 (pIC50) in series [1] of 6.62. This compound had a pIC50 in series [5] of under 4.00. In addition, in series [2] (setting [6]), the solubility at 1 h turned out to be 1900 µg/mL (≈ 6.33 mM) and the concentration in solution (solubility at 2 h) was 1070 µg/mL (≈ 3.55 mM). For the same compound, the “Metabolic stability (CLh. int), Mouse” value in series [3] amounted to 5230 µL/min/mg. Besides, the “Metabolic stability (CLh. int), Human” value in series [4] was determined as 4200 µL/min/mg.

Values taken from patent US9586959B2, “Substituted tricyclic heterocycles as histamine 4 receptor inhibitors” (C&C RESEARCH LABORATORIES, priority 2011, dated 2017).
